Measurements as given in patent US20180327806A1, “MULTIPLEX HIGH-[…] OF MICRO-ORGANISM STRAINS, RELATED KITS, D[…] AND SCREENING ASSAYS” (THE BROAD INSTITUTE, INC., priority 2015, published 2018).

Legend:
[1] = test system: PA14 strain with MurA knockdown (hypomorph); experiment: Growth of PA14 MurA knockdown (hypomorph) strain with drug; type: cell-based, Pseudomonas aeruginosa
Text: Engineering hypersusceptible strains (hypomorph strains): Strain PA14 is engineered so that the expression of selected essential genes may be lowered using a ‘weaker’ promoter. […] 30). It is possible to use a promoter library of varying strengths that was developed to drive GFP expression in E. coli (Davis, J. H., A. J. Rubin, and R. T. Sauer, Design, construction and characterization of a set of insulated bacterial promoters. Nucleic Acids Res, 2011. 39(3): p. 1131-41). […] The weakest promoter that provides the lowest tolerable level of the protein that still yields a viable bacterium may be used for each essential gene to create a hypersensitive strain. It is also proposed to construct control strains by knocking out dihydrofolate reductase dhfr (which is the target of trimethoprim), dihydropteroate synthetase dhps (which is the target of sulfamethoxazole), murA (which is the target of fosfomycin) and ostA (which is the OMP target of POL7001 [Srinivas, N., et al., Peptidomimetic antibiotics target outer-membrane biogenesis in Pseudomonas aeruginosa. Science, 2010. 327(5968): p. 1010-3.]). Then, it is possible to measure the MIC for each of these compounds against their respective strains compared to wild-type PA14.
FIG. 5 illustrates the use of variable promoters for generating and selecting hypomorph strains. […]

[2] = test system: dfrA hypomorph strain; type: cell-based, M. tuberculosis; details: drug targeting dfrA

For `C[C@@H]1O[C@@H]1P(=O)(O)O` [fosfomycin], the “sensitivity of MurA knockdown PA14 strain to drug” value [1] was “hypersensitive”.

With `CN(Cc1cnc2nc(N)nc(N)c2n1)c1ccc(C(=O)N[C@@H](CCC(=O)O)C(=O)O)cc1` [methotrexate] the “sensitivity of dfrA hypomorph strain to drug (dose response curve)” value [2] was “hypersensitive”.
